Reference: article PMC6271988, “New Potentially Active Pyrazinamide Derivatives Synthesized Under Microwave Conditions” (Molecules, 2014)
In brackets after ≈: the same amount, converted by molar mass. Where two headings read alike, the source gives them in different places.

Legend:
Candida glabrata 20/I = assay: Antifungal evaluation, microdilution broth method; assay type: cell-based; settings: CG
Experimental: (§1) Antifungal evaluation was also accomplished with microdilution broth method. On the contrary, there was used RPMI 1640 broth with glutamine as medium and conditions were humid and dark atmosphere, pH 7.0 (adjusted with 0.165 M morpholinepropanesulfonic acid, MOPS) and 35 °C. 8 fungal strains were used (Candida albicans ATCC 44859, Candida tropicalis 156, Candida krusei E28, Candida glabrata 20/I, Trichosporon asahii 1188, Aspergillus fumigatus 231, Lichtheimia corymbifera 272, Trichophyton mentagrophytes 445) together with four antimycotic standards amphotericin B, voriconazole, nystatin and fluconazole.

Trichosporon asahii 1188 = assay: Antifungal evaluation, microdilution broth method; assay type: cell-based; settings: TA
Experimental: as §1

[1] = tested on: Lichtheimia corymbifera 272; assay: Antifungal evaluation, microdilution broth method; assay type: cell-based; settings: LC
Experimental: as §1

[2] = tested on: Trichophyton mentagrophytes 445; assay: Antifungal evaluation, microdilution broth method; assay type: cell-based; settings: TM
Experimental: as §1

[3] = tested on: Aspergillus fumigatus 231; assay: Antifungal evaluation, microdilution broth method; assay type: cell-based; settings: AF
Experimental: as §1

Candida krusei E28 = assay: Antifungal evaluation, microdilution broth method; assay type: cell-based; settings: CK
Experimental: as §1

[4] = tested on: Candida albicans ATCC 44859; assay: Antifungal evaluation, microdilution broth method; assay type: cell-based; settings: CA
Experimental: as §1

Candida tropicalis 156 = assay: Antifungal evaluation, microdilution broth method; assay type: cell-based; settings: CT
Experimental: as §1

[5] = tested on: spectrum of fungi tested (8 fungal strains); assay: Antifungal evaluation, summary over the fungi tested; assay type: cell-based
Experimental: as §1

[6] = Lipophilicity HPLC determination (logk); assay type: physicochemical; settings: HPLC capacity factor, C18, MeOH 70%/H2O 30%, 30 °C
[7] = tested on: PET in spinach chloroplasts; assay: Photosynthetic electron transport (PET) inhibition, DCPIP photoreduction; assay type: biochemical, Spinacia oleracea L.; settings: for IC50: DCPIP photoreduction
Experimental: The inhibition of photosynthetic electron transport (PET) in spinach chloroplasts was determined spectrophotometrically (Genesys 6, Thermo Scientific, Madison, WI, USA) using an artificial electron acceptor 2,6-dichlorophenol-indophenol (DCPIP). The rate of photosynthetic electron transport was monitored as a photoreduction of DCPIP. Chloroplasts were prepared from Spinacia oleracea L.. The measurements were carried out in phosphate buffer (0.02 mol/L, pH 7.2) containing sucrose (0.4 mol/L), MgCl2 (0.005 mol/L) and NaCl (0.015 mol/L). The chlorophyll concentration was 30 mg/L and the samples were irradiated (~100 W/m^2 with 10 cm distance) with a halogen lamp (250 W). […] The studied compound were dissolved in DMSO due to their limited water solubility. […] The efficiency of studied compounds was expressed as 50% inhibition concentration relative to the untreated control. The standard for these measurements was DCMU (Diurone®).

[8] = tested on: Staphylococcus epidermidis; assay: Antibacterial in vitro screening, microdilution broth method; assay type: cell-based; settings: 80% inhibition of control
[9] = tested on: Mycobacterium tuberculosis H37Rv; assay: Antimycobacterial in vitro screening, microdilution broth panel method, Alamar Blue; assay type: cell-based; settings: 336 h, M. tuberculosis H37Rv, Middlebrook 7H9, 14 days of incubation
[10] = Nakaseomyces glabratus, 20/I, 24 h
[11] = Nakaseomyces glabratus, 20/I, 48 h
[12] = Trichosporon asahii, 1188, 24 h
[13] = Trichosporon asahii, 1188, 48 h
[14] = Lichtheimia corymbifera, 272, 24 h
[15] = Lichtheimia corymbifera, 272, 48 h
[16] = Trichophyton mentagrophytes, 445, 72 h
[17] = Trichophyton mentagrophytes, 445, 120 h
[18] = Aspergillus fumigatus, 231, 24 h
[19] = Aspergillus fumigatus, 231, 48 h
[20] = Candida albicans, ATCC44859, 24 h
[21] = Candida albicans, ATCC44859, 48 h
[22] = nearly a whole spectrum of fungi tested, after 24 h of incubation, read-out: 80% inhibition of control (IC80), range over fungi

| Structure (SMILES) | IC80 (Candida glabrata 20/I; [10]) [µM] | IC80 (Candida glabrata 20/I; [11]) [µM] | IC80 (Trichosporon asahii 1188; [12]) [µM] | IC80 (Trichosporon asahii 1188; [13]) [µM] | IC80 [1, 14] [µM] | IC80 [1, 15] [µM] | IC80 [2, 16] [µM] | IC80 [2, 17] [µM] | IC80 [3, 18] [µM] | IC80 [3, 19] [µM] | IC80 (Candida krusei E28; Pichia kudriavzevii, E28, 24 h) [µM] | IC80 (Candida krusei E28; Pichia kudriavzevii, E28, 48 h) [µM] | IC80 [4, 20] [µM] | IC80 [4, 21] [µM] | IC80 (Candida tropicalis 156; Candida tropicalis, 156, 24 h) [µM] | IC80 (Candida tropicalis 156; Candida tropicalis, 156, 48 h) [µM] | logk [6] | IC50 [7] [µM] | further results |
| --- | --- | --- | --- | --- | --- | --- | --- | --- | --- | --- | --- | --- | --- | --- | --- | --- | --- | --- | --- |
| NC(=O)c1nccnc1NC1CCCC1 [Compound 11, 3-(Cyclopentylamino)pyrazine-2-carboxamide] | 250 | > 500 | 500 | > 500 | > 500 | > 500 | 500 | 500 | 500 | > 500 | 250 | 500 | 500 | > 500 | > 500 | > 500 | 0.2537 | 25.8 | IC80 ([5]; fungi tested, less active than the standards, read-out: IC80 antifungal): ≥ 250 µM |
| NC(=O)c1nccnc1NC1CCCCC1 [Compound 12, 3-(Cyclohexylamino)pyrazine-2-carboxamide] | 15.6 | 31.2 | 31.2 | 250 | 250 | 500 | 15.6 | 15.6 | 15.6 | 62.5 | 15.6 | 62.5 | 31.2 | 62.5 | 125 | 500 | 0.4523 | 83 | IC80 [5, 22]: 15.6 to 31.2 µM |
| NC(=O)c1nccnc1NC1CCCCCC1 [Compound 13, 3-(Cycloheptylamino)pyrazine-2-carboxamide] | 7.81 | 15.6 | 31.2 | 125 | 62.5 | 250 | 15.6 | 15.6 | 7.81 | 7.81 | 7.81 | 31.2 | 15.6 | 31.2 | 62.5 | 500 | 0.6575 | 19.3 | IC80 [8]: < 250 µM; IC80 [5, 22]: 7.81 to 31.2 µM |
| NC(=O)c1nccnc1N1CCOCC1 [Compound 16, 3-(Morpholin-4-yl)pyrazine-2-carboxamide] | – | – | – | – | – | – | – | – | – | – | – | – | – | – | – | – | −0.6238 | – | PET inhibition (result in words) [7]: did not inhibit PET |
| CN1CCN(c2nccnc2C(N)=O)CC1 [Compound 17, 3-(4-Methylpiperazin-1-yl)pyrazine-2-carboxamide] | – | – | – | – | – | – | – | – | – | – | – | – | – | – | – | – | −0.4253 | – | PET inhibition (result in words) [7]: did not inhibit PET |
| NC(=O)c1nccnc1N1CCNCC1 [Compound 18, 3-(Piperazin-1-yl)pyrazine-2-carboxamide] | – | – | – | – | – | – | – | – | – | – | – | – | – | – | – | – | −2.3522 | – | PET inhibition (result in words) [7]: did not inhibit PET |
| CN(C)C(=O)Nc1ccc(Cl)c(Cl)c1 [DCMU, 3-(3,4-dichlorophenyl)-1,1-dimethylurea, reference compound] | – | – | – | – | – | – | – | – | – | – | – | – | – | – | – | – | – | 1.9 | – |
| OC(Cn1cncn1)(Cn1cncn1)c1ccc(F)cc1F [FLU, fluconazole] | 31.2 | 250 | 250 | 500 | > 500 | > 500 | 7.81 | 125 | > 500 | > 500 | 125 | 250 | 0.24 | 0.24 | > 500 | > 500 | – | – | – |
| C[C@@H]1[C@H](O)[C@@H](C)/C=C/C=C/CC/C=C/C=C/C=C/C=C/C(O[C@H]2O[C@H](C)[C@@H](O)[C@H](N)[C@@H]2O)CC2O[C@](O)(CC(O)C(O)CCC(O)CC(O)CC(O)CC(=O)O[C@H]1C)CC(O)C2C(=O)O (stereo partly shown) [NYS, nystatin] | – | – | – | – | – | – | – | – | – | – | – | – | – | – | – | – | – | – | IC80 (Candida glabrata 20/I; 24 h): 1.95 µM; IC80 (Candida glabrata 20/I; 48 h): 3.9 µM; IC80 (Trichosporon asahii 1188; 24 h): 1.95 µM; IC80 (Trichosporon asahii 1188; 48 h): 1.95 µM; IC80 ([1]; 24 h): 15.6 µM; IC80 ([1]; 48 h): 31.2 µM; IC80 ([2]; 72 h): 3.9 µM; IC80 ([2]; 120 h): 7.81 µM; IC80 ([3]; 24 h): 1.95 µM; IC80 ([3]; 48 h): 3.9 µM; IC80 (Candida krusei E28; 24 h): 1.95 µM; IC80 (Candida krusei E28; 48 h): 3.9 µM; IC80 ([4]; 24 h): 0.98 µM; IC80 ([4]; 48 h): 1.95 µM; IC80 (Candida tropicalis 156; 24 h): 1.95 µM; IC80 (Candida tropicalis 156; 48 h): 3.9 µM |
| C[C@@H](c1ncncc1F)[C@](O)(Cn1cncn1)c1ccc(F)cc1F [VOR, voriconazole] | 250 | 250 | 7.81 | 31.2 | 250 | 250 | 0.06 | 0.12 | 0.49 | 0.98 | 0.98 | 1.95 | 0.008 | 0.008 | 250 | 250 | – | – | – |
| NNC(=O)c1ccncc1 [isoniazid] | – | – | – | – | – | – | – | – | – | – | – | – | – | – | – | – | – | – | MIC [9]: 0.39 µg/mL (≈ 2.84 µM) |
| NC(=O)c1cnccn1 [pyrazinamide] | – | – | – | – | – | – | – | – | – | – | – | – | – | – | – | – | – | – | MIC [9]: 12.5 µg/mL (≈ 102 µM) |
